The results in this text go back to ChEMBL document CHEMBL5096175, “An insight into the medicinal attributes of berberine derivatives: A review” (Bioorg Med Chem, 2021).

≈ marks a conversion by molar mass, not a printed value.

For one test, the system named is ECa-109 cell line. Briefly: Antiproliferative activity against human Eca-109 cells assessed as inhibition of cell proliferation incubated for 48 hrs by MTT assay. The conditions noted are these: ECa-109, 48 h. Format: functional, cell-based. For orientation: Tetrazolium assays rely on reduction of a dye to a coloured formazan, in cell work by metabolically active cells.

For the next test, the system named is MKN-28. The experiment in a line: Antiproliferative activity against human MKN-28 cells assessed as inhibition of cell proliferation incubated for 48 hrs by MTT assay. Type of test: functional, cell-based. To be noted: MKN-28, 48 h.
A further test concerns SW-620. The experiment in a line: Antiproliferative activity against human SW620 cells assessed as inhibition of cell proliferation incubated for 48 hrs by MTT assay. The conditions noted are these: SW-620, 48 h. Format: functional, cell-based.
For a further test, the system named is LS174T. The experiment in a line: Antiproliferative activity against human LS174T cells assessed as inhibition of cell proliferation incubated for 48 hrs by MTT assay. Type of test: functional, cell-based.
The subject of the next test is HCT-116. The experiment in a line: Antiproliferative activity against human HCT-116 cells assessed as inhibition of cell proliferation incubated for 48 hrs by MTT assay. Type of test: functional, cell-based. The conditions noted are these: HCT-116, 48 h.
A further test deals with CCRF S-180. The experiment in a line: Antiproliferative activity against mouse CCRF S-180 cells assessed as inhibition of cell proliferation incubated for 48 hrs by MTT assay. The conditions noted are these: CCRF S-180, 48 h. Format: functional, cell-based.
Test [1] concerns HCT-8. The experiment in a line: Antiproliferative activity against human HCT-8 cells assessed as inhibition of cell proliferation incubated for 48 hrs by MTT assay. Type of test: functional, cell-based. To be noted: HCT-8, 48 h.
The next test relates to SGC-7901. The experiment in a line: Antiproliferative activity against human SGC-7901 cells assessed as inhibition of cell proliferation incubated for 48 hrs by MTT assay. Type of test: functional, cell-based. To be noted: SGC-7901, 48 h.
For a further test, the system named is A549. The experiment in a line: Antiproliferative activity against human A549 cells assessed as inhibition of cell growth incubated for 72 hrs by MTT assay. Format: functional, cell-based. The conditions noted are these: A549, 72 h.
Another test concerns Bel-7402. Briefly: Antiproliferative activity against human Bel-7402 cells assessed as inhibition of cell growth incubated for 72 hrs by MTT assay. Type of test: functional, cell-based. To be noted: Bel-7402, 72 h.
In test [2] the test system is HCT-8. The experiment in a line: Antiproliferative activity against human HCT-8 cells assessed as inhibition of cell growth incubated for 72 hrs by MTT assay. Type of test: functional, cell-based. The conditions noted are these: HCT-8, 72 h.
The test system of test [3] is HeLa. Briefly: Antiproliferative activity against human HeLa cells assessed as inhibition of cell growth incubated for 72 hrs by MTT assay. Type of test: functional, cell-based.
In another test the test system is HEK-293T. The experiment in a line: Antiinflammatory activity against HEK-293T cells assessed as inhibition of TNF-alpha induced NF-kappaB activation at 5 uM preincubated for 2 hrs followed by TNFalpha stimulation for 6 hrs by dual-luciferase reporter assay relative to control. Format: functional. To be noted: Homo sapiens, time 8 hrs. Background: In a reporter assay the amount or activity of a reporter protein is the signal.

The test system of the next test is Ca-Ski. The experiment in a line: Anticancer activity against human Ca-Ski cells assessed as inhibition of cell growth by Sulforhodamine B colorimetric assay. Format: functional, cell-based. (In SRB staining, fixed cells bind dye roughly in proportion to their protein.)
In test [4] the test system is HeLa. The experiment in a line: Cytotoxicity against human HeLa cells assessed as inhibition of cell growth by Sulforhodamine B colorimetric assay. Format: functional, cell-based.
A further test relates to MCF7. Briefly: Antiproliferative activity against human MCF7 cells assessed as inhibition of cell growth incubated for 72 hrs by MTT assay. Format: functional, cell-based. The conditions noted are these: MCF7, 72 h.
The nature of test [5]: Inhibition of hypoxia induced HIF-1 transcriptional activity in human T47D cells incubated for 1 hr followed by exposure to hypoxic condition for 20 hrs by renilla and HRE-luciferase based dual-luciferase reporter assay. Format: cell-based.
Test [6] in a line: Antioxidant activity assessed as DPPH radical scavenging activity measured after 25 mins by UV visible spectrophotometeric analysis. Type of test: functional.
Test [7] is described as follows: Antioxidant activity assessed as ABTS radical scavenging activity incubated for 10 mins by UV spectrophotometeric analysis. Type of test: functional.
For another test, the system named is Candida parapsilosis. Briefly: Antifungal activity against Candida parapsilosis ATCC 22019 assessed as inhibition of fungal growth incubated for 24 hrs. The conditions noted are these: Lodderomyces parapsilosis. Type of test: functional.
The next test has as its system Candida albicans. Briefly: Antifungal activity against Candida albicans ATCC 90023 assessed as inhibition of fungal growth incubated for 24 hrs. Type of test: functional.
For a further test, the system named is Clostridium perfringens. Briefly: Antibacterial activity against Clostridium perfringens CICC 22949 assessed as inhibition of bacterial growth incubated for 24 hrs by broth microdilution method. Type of test: functional.
A further test concerns Pseudomonas aeruginosa. The experiment in a line: Antibacterial activity against Pseudomonas aeruginosa CICC 10419 assessed as inhibition of bacterial growth incubated for 24 hrs by broth microdilution method. Type of test: functional.
The next test relates to Shigella dysenteriae. Briefly: Antibacterial activity against Shigella dysenteriae CICC 23829 assessed as inhibition of bacterial growth incubated for 24 hrs by broth microdilution method. Type of test: functional.
In another test the test system is Streptococcus pyogenes. The experiment in a line: Antibacterial activity against Streptococcus pyogenes CICC 10356 assessed as inhibition of bacterial growth incubated for 24 hrs by broth microdilution method. Format: functional.
The next test deals with Salmonella enteritidis. The experiment in a line: Antibacterial activity against Salmonella enteritidis CICC 24119 assessed as inhibition of bacterial growth incubated for 24 hrs by broth microdilution method. Type of test: functional, Salmonella enterica subsp. enterica serovar Enteritidis. To be noted: Salmonella enterica.
The test system of test [8] is Staphylococcus aureus. Briefly: Antibacterial activity against methicillin-resistant Staphylococcus aureus ATCC 700699 assessed as inhibition of bacterial growth incubated for 24 hrs by broth microdilution method. Type of test: functional.
In test [9] the test system is Staphylococcus aureus. The experiment in a line: Antibacterial activity against Staphylococcus aureus CICC 23656 assessed as inhibition of bacterial growth incubated for 24 hrs by broth microdilution method. Format: functional.
The subject of the next test is Escherichia coli. Briefly: Antibacterial activity against Escherichia coli CICC 10389 assessed as inhibition of bacterial growth incubated for 24 hrs by broth microdilution method. Type of test: functional.
A short description of test [10]: Antioxidant activity assessed as DPPH radical scavenging potential measured for 30 mins optical density based analysis. Type of test: functional.
Test [11] can be described thus: Antioxidant activity assessed as ABTS radical cation scavenging activity incubated for 10 mins under dark condition. Format: functional.

By IC50 is commonly meant the midpoint of a concentration-inhibition curve. Regarding `COc1ccc2c(CC(=O)ON[C@@H](CSCc3ccccc3)C(=O)OCc3ccccc3)c3[n+](cc2c1OC)CCc1cc2c(cc1-3)OCO2`, the IC50 in the test on ECa-109 cell line, in the test with MKN-28, in the test with SW-620, in the test with LS174T, in the test with HCT-116 and in the test on CCRF S-180 was 15 µM in each case. For the same compound, the IC50 in the test with HCT-8 [1] and with SGC-7901 was 15 µM throughout.
On to `CCCCCCN(CCCCCC)c1cc(OC)c(OC)c2c[n+]3c(cc12)-c1cc2c(cc1CC3)OCO2`, for which the IC50 with A549, in the test with Bel-7402, in the test on HCT-8 [2] and in the test with HeLa [3] was 0.26 µM in each case.
Broadly, the inhibition is the drop in the measured response relative to a control, in per cent. Regarding `CCCC(CCC)C(=O)Oc1c(OC)ccc2cc3[n+](cc12)CCc1cc2c(cc1-3)OCO2`, the inhibition at 5 µM with HEK-293T is more than 90%.
Still for that read-out and setting: to `COc1ccc2cc3[n+](cc2c1OC(=O)C[C@@H]1C[C@H]2CC[C@@H]1C2)CCc1cc2c(cc1-3)OCO2` belongs more than 90%.
As usually defined, the CC50 is the concentration that lowers cell viability or growth by half. As to `COc1cc(CN2CCN(C(=O)c3ccco3)CC2)c2cc3[n+](cc2c1O)CCc1cc2c(cc1-3)OCO2`, in the test on Ca-Ski, the CC50 was 344 µM and the IC50 came to 6.11 µM.
Turning to `COc1cc(CN2CCN(c3cccc4ccccc34)CC2)c2cc3[n+](cc2c1O)CCc1cc2c(cc1-3)OCO2`, in the test on HeLa [4], the CC50 is 478 µM and the 50% inhibitory concentration (IC50) was 8.31 µM.
Regarding `COc1cc(-c2ccc(-c3ccccc3)cc2)c2cc3[n+](cc2c1OC)CCc1cc2c(cc1-3)OCO2`, the IC50 with MCF7 was found to be 0.98 µM; in test [5] it was 0.74 µM.
In the case of `COc1ccc2cc3[n+](cc2c1OCCCCCn1ccc2ccccc21)CCc1cc2c(cc1-3)OCO2`, the IC50 in test [6] came out at 17.1 µM; in test [7], 9.64 µM.
As a reminder, the MIC is the lowest concentration that inhibits growth of the organism. `CCCCCCOc1c(OC)cc(/C=C2\SC(=O)NC2=O)c2c1CN1CCc3cc4c(cc3C1C2)OCO4` (configuration not stated): the minimum inhibitory concentration (MIC) stood at 60 µM (≈ 32.2 µg/mL) in the test on Candida parapsilosis and 15 µM (≈ 8.05 µg/mL) in the test on Candida albicans.
On to `COc1ccc2cc3[n+](cc2c1OC(=O)c1ccc(C(C)(C)C)cc1)CCc1cc2c(cc1-3)OCO2`, for which, in the test on HEK-293T, the inhibition at 5 µM was more than 90%.
For the compound `COc1ccc2cc3[n+](cc2c1OCc1ccc(C#N)cc1)CCc1cc2c(cc1-3)OCO2`, the MIC with Clostridium perfringens, in the test with Pseudomonas aeruginosa, in the test on Shigella dysenteriae, in the test with Streptococcus pyogenes, in the test with Salmonella enteritidis and in the test with Staphylococcus aureus [8] was 1.77 µM each time. For the same compound, the minimum inhibitory concentration (MIC) with Staphylococcus aureus [9] and with Escherichia coli was 1.77 µM throughout.
Consider `COc1c(OC(=O)C23CC4CC(CC(C4)C2)C3)ccc2cc3[n+](cc12)CCc1cc2c(cc1-3)OCO2`, for which the inhibition at 5 µM in the test with HEK-293T was more than 90%.
Regarding `COc1ccc2cc3[n+](cc2c1OCc1ccc([N+](=O)[O-])cc1)CCc1cc2c(cc1-3)OCO2`, the MIC in the test on Clostridium perfringens, in the test on Pseudomonas aeruginosa, with Shigella dysenteriae, in the test on Streptococcus pyogenes, in the test with Salmonella enteritidis and in the test with Staphylococcus aureus [8] was 1.71 µM in each case. For the same compound, the MIC in the test on Staphylococcus aureus [9] and with Escherichia coli was 1.71 µM in each case.
Take `COc1cc(CNc2nc3ccccc3s2)c2cc3[n+](cc2c1O)CCc1cc2c(cc1-3)OCO2`: the IC50 stood at 25.4 µM in test [10] and 8.48 µM in test [11].
On to `COc1ccc2cc3[n+](cc2c1OC)CCc1cc2c(cc1-3)OCO2` [BERBERINE CHLORIDE], for which the half-inhibitory concentration (IC50) in the test with ECa-109 cell line, with MKN-28, with SW-620, with LS174T, with HCT-116 and in the test with CCRF S-180 was 25 µM throughout. Further, the IC50 in the test with HCT-8 [1] and in the test on SGC-7901 was 25 µM each time.
